According to US20090170906A1, “HCV INHIBITORS” (priority 2004, published 2009):

Tested on: HCV genotype 1b strain Con1 replicon (ET replicon line, Huh7 cells)
Assay: ET replicon luciferase assay (HCV activity)
Type: cell-based
Conditions: Hepatitis C virus, Huh-7, Huh7 cells with HCV genotype 1b Con1 luciferase replicon, 72 hours incubation
Protocol: Compounds of the current invention are believed useful in the treatment and/or prophylaxis of conditions and diseases associated with HcV infection. Activity mediated through HCV was determined using an ET replicon line.
The Materials used include a Medium comprised of DMEM (1× liquid, high glucose); Invitrogen cat# 11965-092; 100× Penicillin/Streptomycin solution (10,000 Units/mL); Invitrogen cat# 15140-122; 100× Non-essential amino acid solution (10 mM); Invitrogen cat# 11140-050; Fetal bovine serum; JRH Biosciences cat# 12107-500M; Geneticin (50 mg/mL); Invitrogen cat# 10131-035
The Luciferase assay reagents include Steady-Glo Luciferase assay system, cat# E2550 (Promega)
The ET replicon line (see Lohmann et al. (1999), Replication of subgenomic hepatitis C virus RNAs in a hepatoma cell line. Science 285: 110-113; Krieger et al. (2001), Enhancement of hepatitis C virus RNA replication by cell culture-adaptive mutations. J. Virol. 75: 46144624; and Vrolijk et al. (2003), A replicon-based bioassay for the measurement of interferons in patients with chronic hepatitis C. J. Virol. Meth. 110: 201-209, each herein incorporated by reference with regard to the ET replicon line), includes Huh7 cells stably transfected with HCV genotype 1b strain Con1 replicon. This replicon expresses the firefly luciferase, has the coding region for ubiquitin inserted upstream of the neomycin gene, and carries three cell culture-adaptive mutations that enhance RNA replication cooperatively (E1202G, T1280I, and S2197P). The ET cell line was obtained under licence from: R^eBLikon GmbH, Nach dem alten Schloss 22, 55239 Gau-Odemheim, Germany.
Cells are maintained at 37° C., 5% CO2, in DMEM with 10% FCS, 1× penicillin/streptomycin, 1× non-essential amino acids, 0.5 mg/mL Geneticin. For passage, cells are washed once with PBS, and incubated at 37° C. with sufficient trypsin (0.05%)/versene to cover the monolayer. Once detached from the flask, cells are mixed with several mLs of DMEM+10% FBS to inactivate the trypsin, then diluted appropriately (usually 1 in 5 or 1 in 10) with sufficient medium to pass to a new flask. For a T225 flask, 40-50 mLs total volume of cells+medium is typically used. To prevent the density dependent drop in replicon RNA, the ET cell line is maintained at sub-confluent (60-80%) levels.
Compounds are diluted in DMSO across the first 10 wells of a Costar V-bottom 96-well plate using a Biomek 2000 Workstation (Beckman-Coulter), with 0.5 log10 dilution intervals. DMSO only is added to the last two columns of the plate. The top concentration of drug in this master plate is typically 2.5 mM. A 1/5 dilution of the compounds is made by adding DMEM+10% FBS with a multichannel pipettor, giving a top concentration of 500 μM. 5 μL of diluted compounds is transferred into black Costar flat bottom 96-well daughter plates using a RapidPlate workstation (Zymark).
Cells are grown to approximately 80% confluency and trypsinised as described above. Cells are counted in a Levy Hemocytometer and diluted to 20,000 cells/ml in DMEM containing 10% FBS, 1× penicillin/streptomycin, 1×NEAAs. (Note: Geneticin is omitted for the assay).
245 μL cell suspension is added to the first 11 columns of the daughter plates prepared as above using a Multidrop dispenser (Titertek). Thus, 5,000 cells are added per well, and the final top concentration of each compound is 10 μM. The twelfth column of each plate is used to generate background readings for the assay. Plates are incubated at 37° C., 5% CO2 for 72 hours.
Steady-Glo reagent is prepared according to the manufacturer's instructions, by mixing the Steady-Glo Buffer and Steady-Glo substrate Buffer at room temperature. Medium is removed from the 96-well plates containing ET cells treated with compound using a multi-channel aspirator. 100 μl of Steady-Glo reagent is added to each well using a multichannel pipettor or Multidrop dispensor. […]

**Q.** How did the IC50 turn out when `O=C(NC1CCCc2c1[nH]c1ccc(Br)cc21)c1ccccc1` (stereo not drawn) [Example 14A, N-(6-Bromo-2,3,4,9-tetrahydro-1H-carbazol-1-yl)benzamide] was run?
**A.** The IC50 was 17 nM.

**Q.** For `O=C(NC1CCCc2c1[nH]c1ccc(Br)cc21)c1ccccc1F` (stereo not drawn) [Example 29, N-(6-Bromo-2,3,4,9-tetrahydro-1H-carbazol-1-yl)-2-fluorobenzamide], which IC50 is on record?
**A.** The IC50 was 6 nM.

**Q.** How did the IC50 turn out when `O=C(N[C@@H]1CCCc2c1[nH]c1ccc(Cl)cc21)c1ccccc1` [Example 36B, N-[(1R)-6-chloro-2,3,4,9-tetrahydro-1H-carbazol-1-yl]benzamide] was run?
**A.** Its IC50 is under 30 nM.

**Q.** `O=C(NC1CCCc2c1[nH]c1ccc(Br)cc21)c1ccccn1` (stereo not drawn) [Example 38, N-(6-Bromo-2,3,4,9-tetrahydro-1H-carbazol-1-yl)pyridine-2-carboxamide] was tested. Which IC50 did it give?
**A.** Its IC50 is 7 nM.

**Q.** How did the IC50 turn out when `O=C(N[C@@H]1CCCc2c1[nH]c1ccc(Cl)cc21)c1ccccn1` [Example 45B, N-[(1R)-6-chloro-2,3,4,9-tetrahydro-1H-carbazol-1-yl]pyridine-2-carboxamide] was run?
**A.** Its IC50 is 6 nM.

**Q.** For `O=C(N[C@@H]1CCCc2c1[nH]c1ccc(Cl)cc21)c1ccccc1F` [Example 46B, N-[(1R)-6-chloro-2,3,4,9-tetrahydro-1H-carbazol-1-yl]-2-fluorobenzamide], which IC50 is on record?
**A.** The IC50 was 16 nM.
